pIC50: −log10 of the molar value. Read-outs that look alike come from different tables or passages of the source. One block for each compound: values may come before it.
Key:
[1] = test system: MKN-45; assay: Inhibition of MKN-45 proliferation (MTT); format: cell-based, human; settings: Homo sapiens, MKN-45 proliferation; for GI50: read-out: MKN45 GI50; for inhibition at 0.1 µM: 100 nM, read-out: MKN45 % inhibition @ 100 nM
Description: 3. Inhibition of MKN-45 Proliferation:
Cell proliferation assays were carried out using the high Met expressing human gastric adenocarcinoma cell line, MKN-45, according to the following schedule: • Day 1: Cells were plated in 96-well plates in complete growth medium. • Day 2: Compounds at desired concentrations were added. • Day 5: Cell viability was determined using the 3-[4,5-dimethylthiazol-2-yl]-2,5-diphenyltetrazolium bromide (MTT) dye reduction test. Results: The results are as given as % Inhibition of MKN-45 proliferation at 100 nM and GI50 values in Table 4A to 4C above. 4. Inhibition of c-Met Kinase Phosphorylation in MKN-45 Cells: […]

[2] = target: T1, human recombinant Met kinase (Homo sapiens, UniProt P08581); assay: Colorimetric determination of c-Met kinase activity (HTScan Met Kinase Assay Kit); format: biochemical; settings: for inhibition: cells marked *: tested @ 300 nM, read-out: c-Met Enzyme % inhibition; for inhibition at 0.1 µM: 100 nM (cells without *), read-out: c-Met Enzyme % inhibition @ 100 nM
T1 construct: purchased Cell Signalling Technology, Beverly, Mass
Description: 1. MET Kinase Assay Protocol:
Colorimetric Determination of c-Met Kinase Activity
The receptor tyrosine kinase c-Met is a heterodimeric transmembrane glycoprotein involved in several cellular processes that aid in tumor progression. Phosphorylation of the tyrosine residues in the c-Met kinase domain is critical for its activity and the resulting down-stream effects. The colorimetric assay allows detection of the phosphorylated form of a biotinylated peptide upon activation of human recombinant Met kinase.
MET Kinase Assay Protocol:
c-Met Kinase activity shall be determined using an HTScan® Met Kinase Assay Kit (Cell Signalling Technology, Beverly, Mass.) with modifications. All incubations are carried out at room temperature. Briefly, 12.5 μl of a 4× reaction cocktail (DTT/Kinase buffer containing appropriate quantity of human Met kinase) is added to each well of a 96-well plate containing 12.5 μl pre-diluted compound of interest and incubated for 5 minutes. After the initial incubation, 25 μl/well of 2×ATP/biotinylated peptide is added and incubated for an additional 30 minutes. The reaction is terminated by the addition of 50 μl/well stop buffer (50 mM EDTA, pH 8.0). The reaction mixture (25 μl/well) is then transferred to a streptavidin coated plate (Perkin Elmer, Cat#4009-0010) containing 75 μl dH2O and incubated for 60 minutes. The plate is washed with 200 μl/well wash buffer (1×PBS, 0.05% Tween-20). After washing, 100 μl/well phospho-tyrosine mAb (1:1000 in wash buffer containing 1% BSA) is added and incubated for 60 minutes. After another round of washes, 100 μl/well europium labelled anti-mouse IgG (1:500 in wash buffer containing 1% BSA) is added and incubated for an additional 30 minutes. Following additional washes, 100 μl/well Delfia^(R) enhancement solution (Perkin Elmer, Cat#1244-105) is added and incubated for 45 minutes. Florescence is measured on a microplate reader (BMG Labtech., Germany) at 340 nm (excitation) and 615 nm (emission) for calculating % inhibition. Data generated can be analyzed further using Graphpad Prism (Graphpad software, San Diego Calif.) for determination of IC50.
Results: The results are as given below in Table 4A, 4B and 4C as % Inhibition or IC50 of c-Met

[3] = target: T1, human recombinant Met kinase; assay: as above; format: biochemical; settings: read-out: c-Met Enzyme IC50

T1 sequence (P08581 25-1390): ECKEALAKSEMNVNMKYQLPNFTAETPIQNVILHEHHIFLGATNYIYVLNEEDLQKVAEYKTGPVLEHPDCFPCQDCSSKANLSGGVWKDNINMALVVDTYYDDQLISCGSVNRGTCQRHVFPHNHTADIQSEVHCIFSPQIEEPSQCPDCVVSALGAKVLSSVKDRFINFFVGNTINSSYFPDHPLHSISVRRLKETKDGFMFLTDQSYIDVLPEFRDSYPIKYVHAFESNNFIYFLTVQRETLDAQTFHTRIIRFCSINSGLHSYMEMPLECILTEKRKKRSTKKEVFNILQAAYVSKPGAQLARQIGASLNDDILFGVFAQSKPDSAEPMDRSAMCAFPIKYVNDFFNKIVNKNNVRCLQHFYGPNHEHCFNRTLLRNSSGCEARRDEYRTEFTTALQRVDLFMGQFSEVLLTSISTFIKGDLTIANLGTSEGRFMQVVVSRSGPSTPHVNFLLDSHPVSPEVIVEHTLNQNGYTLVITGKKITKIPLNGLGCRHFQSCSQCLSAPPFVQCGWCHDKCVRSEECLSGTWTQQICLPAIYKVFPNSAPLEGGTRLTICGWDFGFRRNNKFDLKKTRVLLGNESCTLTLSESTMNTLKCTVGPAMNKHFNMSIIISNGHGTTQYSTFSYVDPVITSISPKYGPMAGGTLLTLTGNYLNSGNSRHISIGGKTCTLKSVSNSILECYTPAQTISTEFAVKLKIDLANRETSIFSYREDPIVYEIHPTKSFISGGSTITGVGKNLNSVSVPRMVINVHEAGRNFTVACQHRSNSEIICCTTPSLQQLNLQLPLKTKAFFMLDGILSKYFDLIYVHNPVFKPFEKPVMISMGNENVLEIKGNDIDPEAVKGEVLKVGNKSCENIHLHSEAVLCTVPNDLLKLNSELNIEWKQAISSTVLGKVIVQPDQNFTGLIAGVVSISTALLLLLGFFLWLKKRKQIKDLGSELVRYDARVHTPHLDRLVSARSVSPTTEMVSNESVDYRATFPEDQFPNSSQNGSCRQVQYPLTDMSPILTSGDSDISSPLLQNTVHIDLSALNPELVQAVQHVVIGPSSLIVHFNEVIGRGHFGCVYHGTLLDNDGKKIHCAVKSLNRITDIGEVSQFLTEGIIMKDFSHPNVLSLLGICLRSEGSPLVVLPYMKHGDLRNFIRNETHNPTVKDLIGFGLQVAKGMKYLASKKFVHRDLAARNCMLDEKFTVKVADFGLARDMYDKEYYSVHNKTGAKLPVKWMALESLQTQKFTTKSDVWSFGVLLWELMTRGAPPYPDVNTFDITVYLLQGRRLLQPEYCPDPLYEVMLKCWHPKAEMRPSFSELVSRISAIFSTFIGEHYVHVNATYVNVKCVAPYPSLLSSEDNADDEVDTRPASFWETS

GI50 ([1]; MKN-45, Table 4A): 50 to 100 nM | inhibition ([2]; Table 4A): 75 to 100% | pIC50 ([3]; Table 4A): 7.30 to 7.60
SMILES: CON=C(C)c1ccc2nnn(Cc3cc4cccnc4cc3F)c2n1 (racemic) [Example 60, 1-(3-((7-fluoroquinolin-6-yl)methyl)-3H-[1,2,3]triazolo[4,5-b]pyridin-5-yl) ethanone O-methyl oxime]

GI50 ([1]; MKN-45, Table 4A): 25 to 50 nM | inhibition ([2]; Table 4A): 75 to 100% | pIC50 ([3]; Table 4A): 7.30 to 7.60
SMILES: C/C(=N\NC(N)=S)c1ccc2nnn(Cc3ccc4ncccc4c3)c2n1 [Example 50, 2-(1-(3-(quinolin-6-ylmethyl)-3H-[1,2,3]triazolo[4,5-b]pyridin-5-yl)ethylidene)hydrazinecarbothioamide]
inhibition at 0.1 µM ([1]; MKN-45, Table 4A): 75 to 100%

GI50 ([1]; MKN-45, Table 4A): 25 to 50 nM | inhibition ([2]; Table 4A): 75 to 100% | pIC50 ([3]; Table 4A): 7.30 to 7.60
SMILES: C/C(=N\NC(N)=S)c1ccc2nnn(Cc3cc4cccnc4cc3F)c2n1 [Example 57, 2-(1-(3-((7-fluoroquinolin-6-yl)methyl)-3H-[1,2,3]triazolo[4,5-b]pyridin-5-yl)ethylidene)hydrazinecarbothioamide]
inhibition at 0.1 µM ([1]; MKN-45, Table 4A): 50 to 75%

GI50 ([1]; MKN-45, Table 4A): 25 to 50 nM | pIC50 ([3]; Table 4A): 7.30 to 7.60
SMILES: CC(=NO)c1ccc2nnn(Cc3cc4cccnc4cc3F)c2n1 [Example 59, 1-(3-((7-fluoroquinolin-6-yl)methyl)-3H-[1,2,3]triazolo[4,5-b]pyridin-5-yl) ethanone oxime]

GI50 ([1]; MKN-45, Table 4A): 50 to 100 nM | inhibition ([2]; Table 4A): 75 to 100% | pIC50 ([3]; Table 4A): 7.30 to 7.60
SMILES: C/C(=N\OCCO)c1ccc2nnn(Cc3cc4cccnc4cc3F)c2n1 [Example 61, 1-(3-((7-fluoroquinolin-6-yl)methyl)-3H-[1,2,3]triazolo[4,5-b]pyridin-5-yl) ethanone O-2-hydroxyethyl oxime]

GI50 ([1]; MKN-45, Table 4A): 250 to 1000 nM | inhibition ([2]; Table 4A): 75 to 100% | pIC50 ([3]; Table 4A): 7.30 to 7.60
SMILES: C/C(=N\OCCN)c1ccc2nnn(Cc3ccc4ncccc4c3)c2n1 [Example 63, 1-(3-(quinolin-6-ylmethyl)-3H-[1,2,3]triazolo[4,5-b]pyridin-5-yl)ethanone O-2-aminoethyl oxime]
inhibition at 0.1 µM ([1]; MKN-45, Table 4A): < 25%

inhibition ([2]; Table 4B): 50 to 75% | pIC50 ([3]; Table 4B): 6.60 to 7.00
SMILES: CN(C)CCNC(=O)c1c(F)cc(-c2ccc3ncn(Cc4ccc5ncccc5c4)c3n2)cc1F [Example 104, N-(2-(dimethylamino)ethyl)-2,6-difluoro-4-(3-(quinolin-6-ylmethyl)-3H-imidazo[4,5-b]pyridin-5-yl) benzamide]
inhibition at 0.1 µM ([1]; MKN-45, Table 4B): < 25%

inhibition ([2]; Table 4B): 25 to 50%
SMILES: CONC(=O)c1c(F)cc(-c2ccc3ncn(Cc4ccc5ncccc5c4)c3n2)cc1F [Example 105, 2,6-difluoro-N-methoxy-4-(3-(quinolin-6-ylmethyl)-3H-imidazo[4,5-b]pyridin-5-yl)benzamide]
inhibition at 0.1 µM ([1]; MKN-45, Table 4B): < 25%

GI50 ([1]; MKN-45, Table 4B): 250 to 1000 nM | pIC50 ([3]; Table 4B): 6.60 to 7.00
SMILES: C/C(=N\NC(N)=O)c1ccc2ncn(Cc3ccc4ncccc4c3)c2n1 [Example 107, 2-(1-(3-(quinolin-6-ylmethyl)-3H-imidazo[4,5-b]pyridin-5-yl)ethylidene)hydrazinecarboxamide]
inhibition at 0.1 µM ([1]; MKN-45, Table 4B): < 25%

inhibition ([2]; Table 4B): < 25%
SMILES: C/C(=N\NC(N)=S)c1ccc2ncn(Cc3ccc4ncccc4c3)c2n1 [Example 108, 2-(1-(3-(quinolin-6-ylmethyl)-3H-imidazo[4,5-b]pyridin-5-yl)ethylidene)hydrazinecarbothioamide]
inhibition at 0.1 µM ([1]; MKN-45, Table 4B): < 25%

inhibition at 0.1 µM ([2]; Table 4B): 75 to 100%
SMILES: Cc1cc(-c2ccc3ncn(Cc4ccc5ncccc5c4)c3n2)ccc1C(=O)NOCCO [Example 111, N-(2-Hydroxy-ethoxy)-2-methyl-4-(3-quinolin-6-ylmethyl-3H-imidazo[4,5-b]pyridin-5-yl)-benzamide]
inhibition at 0.1 µM ([1]; MKN-45, Table 4B): < 25%

inhibition at 0.1 µM ([2]; Table 4B): 75 to 100%
SMILES: Cc1cc(-c2ccc3ncn(Cc4ccc5ncccc5c4)c3n2)ccc1C(=O)NOCC(C)(C)O [Example 112, N-(2-Hydroxy-2-methyl-propoxy)-2-methyl-4-(3-quinolin-6-ylmethyl-3H-imidazo[4,5-b]pyridin-5-yl)-benzamide]
inhibition at 0.1 µM ([1]; MKN-45, Table 4B): < 25%

inhibition ([2]; Table 4C): 75 to 100% | pIC50 ([3]; Table 4C): > 7.60
SMILES: NC(=O)c1c(F)cc(-c2ccc3nnn(Cc4ccc5ncccc5c4)c3n2)cc1F [Example 1003, 2,6-difluoro-4-(3-(quinolin-6-ylmethyl)-3H-[1,2,3]triazolo[4,5-b]pyridin-5-yl)benzamide 2,2,2-trifluoroacetate]

GI50 ([1]; MKN-45, Table 4C): < 25 nM | pIC50 ([3]; Table 4C): > 7.60
SMILES: NC(=O)c1c(F)cc(-c2ccc3nnn(Cc4cc5cccnc5cc4F)c3n2)cc1F [Example 1007, 2,6-difluoro-4-(3-((7-fluoroquinolin-6-yl)methyl)-3H-[1,2,3]triazolo[4,5-b]pyridin-5-yl)benzamide]
inhibition at 0.1 µM ([1]; MKN-45, Table 4C): 75 to 100%

GI50 ([1]; MKN-45, Table 4C): 100 to 250 nM | inhibition ([2]; Table 4C): 75 to 100% | pIC50 ([3]; Table 4C): 7.00 to 7.30
SMILES: NC(=O)c1ccc(-c2ccc3ncn(Cc4ccc5ncccc5c4)c3n2)cc1Cl [Example 1008, 2-Chloro-4-(3-(quinolin-6-ylmethyl)-3H-imidazo[4,5-b]pyridin-5-yl)benzamide]
inhibition at 0.1 µM ([1]; MKN-45, Table 4C): 25 to 50%

inhibition ([2]; Table 4C): 25 to 50%
SMILES: CCNC(=O)c1c(F)cc(-c2ccc3ncn(Cc4ccc5ncccc5c4)c3n2)cc1F [Example 1016, N-ethyl-2,6-difluoro-4-(3-(quinolin-6-ylmethyl)-3H-imidazo[4,5-b]pyridin-5-yl)benzamide]
inhibition at 0.1 µM ([1]; MKN-45, Table 4C): < 25%

inhibition ([2]; Table 4C): 25 to 50%
SMILES: CNC(=O)c1ccc(-c2ccc3ncn(Cc4ccc5ncccc5c4)c3n2)cc1Cl [Example 1017, 2-chloro-N-methyl-4-(3-(quinolin-6-ylmethyl)-3H-imidazo[4,5-b]pyridin-5-yl)benzamide]
inhibition at 0.1 µM ([1]; MKN-45, Table 4C): < 25%

inhibition ([2]; Table 4C): 50 to 75%
SMILES: Cc1cc(-c2ccc3ncn(Cc4ccc5ncccc5c4)c3n2)ccc1C(N)=O [Example 1018, 2-methyl-4-(3-(quinolin-6-ylmethyl)-3H-imidazo[4,5-b]pyridin-5-yl) benzamide]
inhibition at 0.1 µM ([1]; MKN-45, Table 4C): 25 to 50%

inhibition ([2]; Table 4C): < 25%
SMILES: Cc1nc2ccc(-c3ccc(C(N)=O)c(Cl)c3)nc2n1Cc1ccc2ncccc2c1 [Example 1020, 2-chloro-4-(2-methyl-3-(quinolin-6-ylmethyl)-3H-imidazo[4,5-b]pyridin-5-yl)benzamide]
inhibition at 0.1 µM ([1]; MKN-45, Table 4C): 50 to 75%

inhibition ([2]; Table 4C): < 25%
SMILES: CC(c1ccc2ncccc2c1)n1cnc2ccc(-c3ccc(C(N)=O)c(Cl)c3)nc21 (centres unmarked) [Example 1021, 2-chloro-4-(3-(1-(quinolin-6-yl)ethyl)-3H-imidazo[4,5-b]pyridin-5-yl)benzamide]
inhibition at 0.1 µM ([1]; MKN-45, Table 4C): 25 to 50%

GI50 ([1]; MKN-45, Table 4C): 50 to 100 nM | pIC50 ([3]; Table 4C): > 7.60
SMILES: NC(=O)c1ccc(-c2ccc3ncn(Cc4cc5cccnc5cc4F)c3n2)cc1Cl [Example 1022, 2-chloro-4-(3-((7-fluoroquinolin-6-yl)methyl)-3H-imidazo[4,5-b]pyridin-5-yl)benzamide]
inhibition at 0.1 µM ([1]; MKN-45, Table 4C): 50 to 75%

GI50 ([1]; MKN-45, Table 4C): < 25 nM | inhibition ([2]; Table 4C): 75 to 100% | pIC50 ([3]; Table 4C): > 7.60
SMILES: NC(=O)c1ccc(-c2ccc3ncn(Cc4c(F)cc5ncccc5c4F)c3n2)cc1Cl [Example 1023, 2-chloro-4-(3-((5,7-difluoroquinolin-6-yl)methyl)-3H-imidazo[4,5-b]pyridin-5-yl)benzamide]
inhibition at 0.1 µM ([1]; MKN-45, Table 4C): 50 to 75%

inhibition at 0.1 µM ([2]; Table 4C): 75 to 100%
SMILES: NC(=O)c1ccc(-c2ccc3ncn(Cc4c(F)cc5ncccc5c4F)c3n2)cc1C(F)(F)F [Example 1028, 4-[3-(5,7-Difluoro-quinolin-6-ylmethyl)-3H-imidazo[4,5-b]pyridin-5-yl]-2-trifluoromethyl-benzamide]
inhibition at 0.1 µM ([1]; MKN-45, Table 4C): 75 to 100%

From patent publication US9815831B2, “3,5-disubstituted-3H-imidazo[4,5-B]pyridine and 3,5-disubstituted-3H-[1,2,3]triazolo[4,5-B] pyridine compounds as modulators of c-Met protein kinases” (Rhizen Pharmaceuticals SA, priority 2012, dated 2017)
